Where two headings read alike, the source gives them in different places.
How the values were obtained:
[1] = Therapeutic drug monitoring of isavuconazole Ctrough and Cpeak in hospitalized patients; type: in vivo, human
Protocol: Isavuconazole treatment was started with a loading dose of 200 mg every 8 h for two days, followed by a maintenance dose of 200 mg daily administered orally or intravenously, at the physician’s discretion. Patients underwent TDM of isavuconazole by assessing plasma Ctrough, which was determined approximately five minutes before the scheduled daily dose, and, whenever possible, also plasma Cpeak, which was determined 2 h after oral administration or 0.5 h after a 1 h intravenous infusion. TDM was assessed firstly after at least 72 h from starting therapy and subsequently reassessed at the discretion of the attending physician.
Blood samples for isavuconazole TDM were immediately delivered to the Institute of Clinical Pharmacology, where they were centrifuged to obtain serum. Isavuconazole serum concentrations were estimated by means of a validated liquid chromatography–tandem mass spectrometry analytic method. Precision and accuracy were assessed by replicate analysis of quality control samples against calibration standards. Intra- and interassay coefficients of variation were always <10%. The LOQ was 0.11 mg/L, and the assay was linear in the range of 0.1–10 mg/L.

A. flavus = system: A. flavus; parameters: method as in earlier work; settings: EUCAST; cited from earlier work
A. fumigatus [2] = system: A. fumigatus; parameters: method as in PMID 25753636; settings: EUCAST MIC method; associated with a 90% survival rate against disseminated aspergillosis by wild-type and azole-resistant A. fumigatus; cited from earlier work
[3] = Mixed-effect linear regression of clinical variables associated with isavuconazole Ctrough; type: in vivo, human
Protocol: Data were presented as median and interquartile range (IQR) for continuous variables or as count and percentage for categorical variables in the descriptive statistics. Univariate and multivariate linear mixed-effect models (with a random effect to account for correlation among repeated measurements within the same subject) were performed to identify clinical independent predictors of isavuconazole Ctrough. All variables that were associated with a p ≤ 0.20 at univariate analysis were subsequently included in the multivariate model. All statistical and graphical analyses were performed with R version 3.4.4 (R Foundation for Statistical Computing, Vienna, Austria). Data were considered statistically significant when p < 0.05.

[4] = Population pharmacokinetic modeling (NPAG, Pmetrics); type: in vivo, human; settings: for clearance / Vd / bioavailability: human, serum, 200 mg daily; for clearance / Vd: other: orally or intravenously; for clearance: read-out: CL, total body clearance (converted); for bioavailability: po, read-out: Fos, oral bioavailability
Protocol: Population pharmacokinetics were conducted using the nonparametric adaptive grid approach (NPAG) and the algebraic model solver included in the Pmetrics package (Version 1.5.0, Laboratory of Applied Pharmacokinetics and Bioinformatics, Los Angeles, CA, USA) of R [22]. One- and two-compartment models with first-order absorption and first-order elimination from the central compartment were developed. Maximum a posteriori (MAP)-Bayesian estimates of isavuconazole clearance (CL) and volume of distribution (V) were determined in each patient.
Influence of covariates was assessed by including the biologically plausible clinical covariates into the basic model. Covariate analysis was conducted by means of the Pmetrics function “PMstep” and by linear regression between the median MAP-Bayesian estimates of isavuconazole pharmacokinetic parameters and each tested covariate.
Model comparison was performed by calculating the objective function value (OFV) and the Akaike information criterion (AIC) value. An improvement between the two competitive models was considered statistically significant when the decrease in the OFV was at least 3.84 points. For both the population predictions and the individual predictions, model fit was assessed by evaluating the coefficient of determination of the linear regression of the observed versus predicted concentration plot. Internal model validation was performed by means of a visual predictive check (VPC) with n = 1000 simulations. The normalized prediction distribution errors (NPDE) were also calculated. The VPC plot compares the observed concentrations with model-predicted concentration-time profiles. A model is reliable when ≥95% of the observed concentrations reside within the 95% CI of the model prediction. Assay laboratory error was estimated by means of the interday variability assay data. A first-order polynomial regression was used between drug concentrations and the standard deviation of the observations (C0 = 0.006, C1 = 0.189). Extra process noise was captured with a gamma (G) model (G = 2).

invasive fungal disease = assay: Clinical outcome at end of isavuconazole treatment; type: in vivo, human
Protocol: This was a monocentric, retrospective, observational study conducted among patients who were treated with isavuconazole because of IFD between September 2017 and November 2020 at the Azienda Sanitaria Universitaria Friuli Centrale of Udine, Italy.
(§1) The following demographic and clinical data were retrieved from each patient’s medical record: age, gender, weight, height, type and site of infection and microbiological isolate. Patient comedications, along with serum albumin, total bilirubin, ALT, AST and γ-GT concentrations, were recorded at each TDM assessment. Drug-induced liver injury was defined as mild, moderate, severe or fatal according to the EASL Clinical Practice Guidelines for drug-induced liver injury. Drug cotreatments were accurately reviewed by a clinical pharmacologist with the intent of assessing the eventual influence on isavuconazole clearance by CYP3A4 inhibitors and/or inducers. CYP3A4 inhibitors and/or inducers were classified as strong, moderate and mild according to the FDA [19] and to the DrugBank database. Patient outcome at end of therapy was defined as successful (in case of clinical, radiological and/or mycological resolution or improvement of infection) or failed according to [21].

A. fumigatus [5] = system: A. fumigatus; parameters: method as in earlier work; settings: EUCAST; cited from earlier work
[6] = cited from earlier work
[7] = Safety and liver enzyme monitoring during isavuconazole therapy; type: in vivo
Protocol: as §1

[8] = cited from earlier work; remark: listed apart in the source
[9] = parameters: method as in PMID 26598096; settings: cited from earlier work
[10] = Mean, final population pharmacokinetic model
[11] = Median, final population pharmacokinetic model

Structure (SMILES): C[C@@H](c1nc(-c2ccc(C#N)cc2)cs1)[C@](O)(Cn1cncn1)c1cc(F)ccc1F [isavuconazole, Isavuconazole]
- proportion of measured Ctrough <1.0 mg/L ([1]; 2 of 175 Ctrough): 1.1%
- proportion of measured Ctrough >5.13 mg/L ([1]; 50 of 175 Ctrough): 28.6%
- Cpeak ([1]; median of 24 Cpeak, patients n = 50, dose 200 mg): 4.67 mg/L
- Ctrough ([1]; median of 175 Ctrough, patients n = 50, dose 200 mg): 3.68 µg/mL
- clinical breakpoint (A. flavus): 1 mg/L
- AUC24 h/MIC pharmacodynamic threshold of efficacy (A. fumigatus [2]): > 33.4
- Unstandardized β-Coefficient (95% CI) for Ctrough ([3]; Multivariate Analysis, Cotreatment with CYP3A4 inhibitors): 2.154 (3.248–1.060)
- Unstandardized β-Coefficient (95% CI) for Ctrough ([3]; Multivariate Analysis, Dose/kg daily (mg/kg)): 0.402 (0.819−0.016)
- Unstandardized β-Coefficient (95% CI) for Ctrough ([3]; Multivariate Analysis, γ-GT (IU/L)): −0.0004 (0.002−0.002)
- Unstandardized β-Coefficient (95% CI) for Ctrough ([3]; Univariate Analysis, ALT (IU/L)): −0.001 (0.007−0.009)
- Unstandardized β-Coefficient (95% CI) for Ctrough ([3]; Univariate Analysis, AST (IU/L)): −0.008 (-0.002–0.004)
- Unstandardized β-Coefficient (95% CI) for Ctrough ([3]; Univariate Analysis, Albumin (g/L)): 0.034 (0.087−0.019)
- Unstandardized β-Coefficient (95% CI) for Ctrough ([3]; Univariate Analysis, Cotreatment with CYP3A4 inhibitors): 2.39 (3.337–1.443)
- Unstandardized β-Coefficient (95% CI) for Ctrough ([3]; Univariate Analysis, Days from starting therapy (days)): 0.001 (0.007−0.005)
- Unstandardized β-Coefficient (95% CI) for Ctrough ([3]; Univariate Analysis, Dose/kg daily (mg/kg)): 0.815 (1.164–0.466)
- Unstandardized β-Coefficient (95% CI) for Ctrough ([3]; Univariate Analysis, Gender (male vs. female)): 0.099 (6.986−6.788)
- Unstandardized β-Coefficient (95% CI) for Ctrough ([3]; Univariate Analysis, Total bilirubin (mg/dL)): −0.346 (0.034−0.726)
- Unstandardized β-Coefficient (95% CI) for Ctrough ([3]; Univariate Analysis, Weight (kg)): −0.029 (0.006−0.064)
- Unstandardized β-Coefficient (95% CI) for Ctrough ([3]; Univariate Analysis, γ-GT (IU/L)): 0.003 (0.005–0.001)
- reduction in Ctrough ([3]; associated with patient age): 3.7%
- increase in isavuconazole Ctrough ([3]; cotreatment with mild/moderate CYP3A4 inhibitors): more than 2 fold
- Ka, first-order transfer rate constant of absorption [4, 10]: 22.64 h⁻¹
- Vp, volume of distribution of the peripheral compartment [4, 10]: 735.24 L
- CL, total body clearance [4, 11]: 1.33 L/h
- Ka, first-order transfer rate constant of absorption [4, 11]: 22.64 h⁻¹
- Vp, volume of distribution of the peripheral compartment [4, 11]: 385.93 L
- clearance [4, 10]: 25.3 mL/min
- Vd ([4]; Mean, final population pharmacokinetic model, read-out: V, volume of distribution of the central compartment): 89.5 L
- clearance [4, 11]: 25.3 mL/min
- Vd ([4]; Median, final population pharmacokinetic model, read-out: V, volume of distribution of the central compartment): 103 L
- Vd ([4]; population pharmacokinetic model, read-out: median volume of distribution): 489 L
- bioavailability [4, 10]: 95%
- bioavailability [4, 11]: 100%
- interindividual variability on CL ([4]; population pharmacokinetic model): 64%
- lack of significant improvement with isavuconazole treatment (invasive fungal disease; 3/47): 6.4%
- Dead for other reasons (invasive fungal disease; 3/47, progression of underlying oncohematological disease): 6.4%
- Treatment failure (invasive fungal disease; clinical outcome at end of treatment, Table 1 (12/47)): 25.5%
- Successful treatment (invasive fungal disease; clinical outcome at end of treatment, patients who completed treatment (n = 47)): 68.1%
- failure (invasive fungal disease; clinical outcome, text (9/47)): 19.2%
- clinical breakpoint (A. fumigatus [5]): 1 mg/L
- dose up to which the pharmacokinetics are linear [6]: up to 600 mg daily
- elimination half-life [6]: 80 to 130 h
- plasma drug accumulation ratio between start and end of therapy ([6]; multiple-dose study, 32 healthy volunteers, IV and oral): 3.8–5.2
- CL ([6]; observed in SOT patients): 4.28 L/h
- interindividual variability on CL ([6]; reported by previous analysis): 43–63%
- CL ([6]; reported in clinical trials): 2.2 to 2.5 L/h
- signs and/or symptoms of isavuconazole toxicity during therapy ([7]; 50 patients): No patient experienced signs and/or symptoms of isavuconazole toxicity during therapy
- ALT in intercurrent mild hepatotoxicity ([7]; one patient, resolved spontaneously without isavuconazole withdrawal): up to 261 IU/L
- alanine-aminotransferase (ALT), median (min–max) ([7]; patients on isavuconazole): 21.0 (3.0–261.0) UI/L
- aspartate-aminotransferase (AST), median (min–max) ([7]; patients on isavuconazole): 20.0 (5.0–249.0) UI/L
- gamma-glutamyltransferase (γ-GT), median (min–max) ([7]; patients on isavuconazole): 70.0 (12.0–642.0) IU/L
- cut-off value for toxicity (Ctrough) ([8]; ROC analysis, mild adverse events): 5.13 µg/mL
- Median isavuconazole concentration on days when side effects occurred [8]: 6.65 mg/L
- Median isavuconazole concentration when side effects were not present [8]: 4.09 mg/L
- isavuconazole levels associated with hepatic veno-occlusive disease ([8]; in vivo): > 10 mg/L
- linear increase of concentration for each day of treatment ([8]; linear mixed model, 264 Ctrough samples from 19 patients): 0.032 mg/L
- plasma protein binding [9]: > 98%
